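Step 1: Grow cells in 96-well plates. Step 2: Expose to compound for 48 hours at 5 concentrations. Step 3: Interpolate endpoints linearly; if unreached, use highest concentration. The concentration for full growth arrest is given as TGI.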 *1 amine or outer side, *2 acyl side, *3 side chain or, on linkers, in order; H or OH if unused. Where a SMILES comes first, the peptide text is derived from it. [ ]: non-standard residue; d: D form. The star is where a group is joined. X31 = CC(=O)N(C)SCC(N[*:1])C(=O)[*:2]; Fmoc = O=C(OCC1c2ccccc2-c2ccccc21)*; For = O=C*
Legend:
Test in all cases: growth of human tumour cells (NCI), 48 h
[1] = tested on: SF-268 CNS
[2] = tested on: UO-31 renal
[3] = tested on: HCT-116 colon
[4] = tested on: HCC-2998 colon
[5] = tested on: OVCAR-3 ovarian
[6] = tested on: CAKI-1 renal
[7] = tested on: MDA-N
[8] = tested on: LOX IMVI melanoma
[9] = tested on: TK-10 renal
[10] = tested on: RPMI-8226 leukemia

## Cc1nc(Nc2nc3ccccc3[nH]2)[nH]c(=O)c1CCO
[1]
  TGI: > 100 µM
[2]
  TGI: > 100 µM
[3]
  TGI: > 100 µM
[4]
  TGI: > 100 µM
[5]
  TGI: > 100 µM
[6]
  TGI: > 100 µM
[7]
  TGI: > 100 µM
[8]
  TGI: > 94.7 µM
[9]
  TGI: > 81.4 µM

## S=C(Nc1cccc(C2(N3CCCCC3)CCCCC2)c1)Nc1cccc(C2(N3CCCCC3)CCCCC2)c1
[1]
  TGI: > 100 µM
[2]
  TGI: 31.5 µM
[10]
  TGI: 30.7 µM
[3]
  TGI: 48.4 µM
[4]
  TGI: 6.07 µM
[5]
  TGI: 50.5 µM
[6]
  TGI: > 100 µM
[7]
  TGI: 33.8 µM
[8]
  TGI: 26.7 µM
[9]
  TGI: 7.39 µM

## Cn1nc(C(=O)N2CC(CCl)c3c2cc([N+](=O)[O-])c2ccccc32)cc1NC(=O)Nc1cc(C(=O)N2CC(CCl)c3c2cc([N+](=O)[O-])c2ccccc32)nn1C (stereo not given)
[1]
  TGI: > 100 µM
[2]
  TGI: > 100 µM
[10]
  TGI: > 100 µM
[3]
  TGI: > 100 µM
[4]
  TGI: > 100 µM
[5]
  TGI: > 100 µM
[6]
  TGI: > 100 µM
[7]
  TGI: > 100 µM
[9]
  TGI: > 100 µM

## CC1=C(C(=O)NC(C)(C)C)CC(C(=O)NC(C)(C)C)C(C)N1 (stereo not given)
[1]
  TGI: > 100 µM
[2]
  TGI: > 100 µM
[10]
  TGI: > 100 µM
[3]
  TGI: > 100 µM
[4]
  TGI: > 100 µM
[5]
  TGI: > 100 µM
[6]
  TGI: > 100 µM
[7]
  TGI: > 100 µM
[8]
  TGI: > 100 µM
[9]
  TGI: > 100 µM

## Nc1cc(N)c(N=Nc2cccc3c(S(=O)(=O)O)cccc23)cc1N=Nc1cc([N+](=O)[O-])ccc1O
[1]
  TGI: 54.8 µM
[2]
  TGI: > 100 µM
[10]
  TGI: > 100 µM
[3]
  TGI: > 100 µM
[4]
  TGI: 79.9 µM
[5]
  TGI: > 100 µM
[6]
  TGI: > 100 µM
[7]
  TGI: > 100 µM
[8]
  TGI: 37.1 µM
[9]
  TGI: > 100 µM

## CCCc1cc(-c2ccc(-c3cc(CCC)c(C=O)[nH]3)s2)[nH]c1C=O
[1]
  TGI: > 100 µM
[2]
  TGI: > 100 µM
[10]
  TGI: > 100 µM
[3]
  TGI: > 100 µM
[4]
  TGI: 22.9 µM
[5]
  TGI: > 100 µM
[6]
  TGI: > 100 µM
[7]
  TGI: > 100 µM
[8]
  TGI: 32.1 µM
[9]
  TGI: > 100 µM

## COc1ccccc1Cn1[nH]c(=O)c2cc([N+](=O)[O-])ccc21
[1]
  TGI: > 100 µM
[2]
  TGI: > 100 µM
[10]
  TGI: > 100 µM
[3]
  TGI: > 100 µM
[4]
  TGI: > 100 µM
[5]
  TGI: 83 µM
[6]
  TGI: > 100 µM
[7]
  TGI: > 100 µM
[8]
  TGI: > 100 µM
[9]
  TGI: > 100 µM

## O=C1/C(=C/c2ccc(Cl)cc2)Sc2scc(-c3cccc([N+](=O)[O-])c3)[n+]21
[1]
  TGI: 14.6 µM
[2]
  TGI: 15.5 µM
[10]
  TGI: 3.99 µM
[4]
  TGI: 10.5 µM
[5]
  TGI: 36 µM
[6]
  TGI: 6.85 µM
[7]
  TGI: 13.8 µM
[9]
  TGI: 5.07 µM

## CC(=O)N(C)SCC(NC(=O)C(Cc1ccccc1)NC(=O)OCC1c2ccccc2-c2ccccc21)C(=O)NC(Cc1ccccc1)C(=O)NC(Cc1cn(C=O)c2ccccc12)C(=O)NC(CCCCNC(=O)OCC1c2ccccc2-c2ccccc21)C(=O)NC(C(=O)NC(CSN(C)C(C)=O)C(=O)NC(C(N)=O)C(C)O)C(C)O (stereo not given) (Fmoc-F[X31]FW(For)K(Fmoc)T[X31]T-NH2; configuration not given here)
[1]
  TGI: > 100 µM
[2]
  TGI: 70.2 µM
[10]
  TGI: > 100 µM
[3]
  TGI: > 100 µM
[4]
  TGI: > 100 µM
[5]
  TGI: > 100 µM
[7]
  TGI: > 100 µM
[8]
  TGI: > 100 µM
[9]
  TGI: 67.5 µM

## CNc1ncnc2c1cnn2Cc1cn(CCCCO)nn1
[1]
  TGI: > 100 µM
[2]
  TGI: > 100 µM
[10]
  TGI: > 100 µM
[3]
  TGI: > 100 µM
[4]
  TGI: > 100 µM
[5]
  TGI: > 100 µM
[6]
  TGI: > 100 µM
[7]
  TGI: > 100 µM
[8]
  TGI: > 100 µM
[9]
  TGI: > 100 µM

## CSc1nc(C)c(CCCl)c(Cl)n1
[1]
  TGI: > 100 µM
[2]
  TGI: > 100 µM
[3]
  TGI: > 100 µM
[4]
  TGI: > 100 µM
[5]
  TGI: > 100 µM
[6]
  TGI: > 100 µM
[7]
  TGI: > 100 µM
[8]
  TGI: > 100 µM
[9]
  TGI: > 100 µM

## CC(=O)/C(=C(/Br)I)c1ccccc1
[1]
  TGI: > 46.3 µM
[2]
  TGI: 25.1 µM
[10]
  TGI: 9.35 µM
[3]
  TGI: 15.2 µM
[4]
  TGI: 12.3 µM
[5]
  TGI: 17.9 µM
[6]
  TGI: 6.83 µM
[7]
  TGI: 14.8 µM
[8]
  TGI: 22.5 µM
[9]
  TGI: 36.3 µM

## CC(=O)C1C(=O)C(=O)N(c2ccc(Br)cc2)C1=O (stereo not given)
[1]
  TGI: > 100 µM
[2]
  TGI: > 100 µM
[3]
  TGI: > 100 µM
[4]
  TGI: > 100 µM
[5]
  TGI: > 100 µM
[6]
  TGI: > 100 µM
[7]
  TGI: > 100 µM
[8]
  TGI: > 100 µM
[9]
  TGI: > 100 µM

## O=C(Nc1ccc(S(=O)(=O)Nc2ncccn2)cc1)c1c2ccccc2nc2ccccc12
[1]
  TGI: > 100 µM
[2]
  TGI: > 100 µM
[10]
  TGI: > 100 µM
[3]
  TGI: > 100 µM
[4]
  TGI: > 100 µM
[5]
  TGI: > 100 µM
[6]
  TGI: > 100 µM
[7]
  TGI: > 100 µM
[8]
  TGI: > 100 µM
[9]
  TGI: > 100 µM

## Nc1nc(NCCOCP(=O)(O)O)c(N)c(=O)[nH]1
[1]
  TGI: > 100 µM
[2]
  TGI: > 100 µM
[10]
  TGI: > 100 µM
[3]
  TGI: > 100 µM
[4]
  TGI: > 100 µM
[5]
  TGI: > 100 µM
[6]
  TGI: > 100 µM
[7]
  TGI: > 100 µM
[8]
  TGI: > 100 µM
[9]
  TGI: > 100 µM

## C#CC(O)Cc1ccc(OC)c2occc12 (stereo not given)
[1]
  TGI: > 100 µM
[2]
  TGI: > 100 µM
[10]
  TGI: > 100 µM
[3]
  TGI: > 100 µM
[4]
  TGI: > 100 µM
[5]
  TGI: > 100 µM
[6]
  TGI: > 100 µM
[7]
  TGI: > 100 µM
[8]
  TGI: > 100 µM
[9]
  TGI: > 100 µM

## Cc1ncc(CO)c(C=NCCCCCCN=Cc2c(CO)cnc(C)c2O)c1O
[1]
  TGI: > 100 µM
[2]
  TGI: > 100 µM
[10]
  TGI: > 100 µM
[3]
  TGI: > 100 µM
[4]
  TGI: > 100 µM
[5]
  TGI: > 100 µM
[6]
  TGI: > 100 µM
[7]
  TGI: > 100 µM
[8]
  TGI: > 100 µM
[9]
  TGI: > 100 µM

## Cc1cn2c(/C=C3/C(=O)Nc4ccccc43)c(C)nc2s1
[1]
  TGI: 78.1 µM
[2]
  TGI: 61.4 µM
[10]
  TGI: 21 µM
[3]
  TGI: 15.5 µM
[4]
  TGI: 19.5 µM
[6]
  TGI: > 100 µM
[7]
  TGI: 0.492 µM
[8]
  TGI: 70.4 µM
[9]
  TGI: > 100 µM

## O=C(O)CCc1nc2cc3ccccc3cc2[nH]c1=O
[1]
  TGI: > 100 µM
[2]
  TGI: > 100 µM
[3]
  TGI: > 100 µM
[4]
  TGI: > 100 µM
[5]
  TGI: > 100 µM
[6]
  TGI: > 100 µM
[7]
  TGI: > 100 µM
[8]
  TGI: > 100 µM
[9]
  TGI: > 100 µM

## Cc1ccc(Nc2cn(COCc3ccccc3)c(=O)[nH]c2=O)cc1
[1]
  TGI: > 100 µM
[2]
  TGI: > 100 µM
[10]
  TGI: > 100 µM
[3]
  TGI: > 100 µM
[4]
  TGI: > 100 µM
[5]
  TGI: > 100 µM
[6]
  TGI: > 100 µM
[7]
  TGI: > 100 µM
[8]
  TGI: > 100 µM
